Experimental data taken from the SangsterLogP compilation.

Test: method code SF, from PMID: 5081587
For O=NN(CCCl)C(=O)NC1CCS(=O)(=O)CC1, the logP was 0.19. Work on CN(C)/N=N/c1nc[nH]c1C(N)=O yielded a logP of -0.24. Molecule O=NN(CCCl)C(=O)NC1C=CCCC1 (stereo not drawn) has a logP of 2.45. Work on O=NN(CCCl)C(=O)NCCCl yielded a logP of 1.53. O=NN(CCCl)C(=O)NC1CC2CCC1C2 (stereo not drawn) gave a logP of 2.98. With O=NN(CCF)C(=O)NC1CSCSC1 the logP was 1.54. Work on O=NN(CCF)C(=O)NC1CCSCC1 yielded a logP of 1.43. For O=NN(CCCl)C(=O)NC1CCCC1, the logP was 2.19. O=NN(CCCl)C(=O)NC1CCCCC1Cl (stereo not drawn) showed a logP of 2.73. In the case of O=NN(CCCl)C(=O)NC1CCSCC1, the logP is reported as 2.07. For O=NN(CCCl)C(=O)NC1CSCSC1, the logP was 2.08. For O=P1(N(CCCl)CCCl)NCCCO1 (stereo not drawn), the logP was 0.63. For O=NN(CCCl)C(=O)NC1CCC(=O)NC1=O (stereo not drawn), the logP was 0.37.
